# In PubChem BioAssay (NCI):
#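 Five compound concentrations were applied to cells in 96-well plates for 48 hours; endpoints were derived by simple linear interpolation of the resulting dose-response curve. GI50 is the concentration that inhibits growth by half. At the TGI there is no net growth.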
# Assays:
# Experiment in all cases: inhibition of tumour cell growth, NCI panel, 48 h
# [1] = tested on: BT-549 breast
# [2] = tested on: SNB-75 CNS
# [3] = tested on: NCI/ADR-RES ovarian
# [4] = tested on: OVCAR-8 ovarian
# [5] = tested on: SNB-19 CNS
# [6] = tested on: HCC-2998 colon
# [7] = tested on: HS 578T breast
# [8] = tested on: HCT-15 colon
# [9] = tested on: NCI-H460 lung
# [10] = tested on: MDA-MB-435
# [11] = tested on: HCT-116 colon
# [12] = tested on: NCI-H23 lung
# [13] = tested on: RPMI-8226 leukemia
# [14] = tested on: SW-620 colon
# [15] = tested on: MDA-MB-231 breast
# [16] = tested on: SK-MEL-5 melanoma
# [17] = tested on: NCI-H226 lung
# [18] = tested on: SK-OV-3 ovarian
# [19] = tested on: SF-268 CNS
# [20] = tested on: IGROV1 ovarian
# [21] = tested on: SK-MEL-28 melanoma
# [22] = tested on: OVCAR-3 ovarian
# [23] = tested on: SF-295 CNS
# [24] = tested on: PC-3 prostate
# [25] = tested on: RXF 393 renal
# [26] = tested on: ACHN renal
# [27] = tested on: LOX IMVI melanoma
# [28] = tested on: HL-60(TB) leukemia
# [29] = tested on: DU-145 prostate
# [30] = tested on: MOLT-4 leukemia
# [31] = tested on: TK-10 renal
# [32] = tested on: MCF7 breast
# [33] = tested on: UO-31 renal
# [34] = tested on: SF-539 CNS
# [35] = tested on: KM12 colon
# [36] = tested on: 786-0 renal
# [37] = tested on: COLO 205 colon
# [38] = tested on: T-47D breast
# [39] = tested on: UACC-257 melanoma
# [40] = tested on: SK-MEL-2 melanoma
# [41] = tested on: A498 renal
# [42] = tested on: CAKI-1 renal
# [43] = tested on: HT29 colon
# [44] = tested on: HOP-92 NSCLC
# [45] = tested on: A549 NSCLC
# [46] = tested on: UACC-62 melanoma
# [47] = tested on: U251 CNS
# [48] = tested on: M14 melanoma
# [49] = tested on: SN12C renal
# [50] = tested on: HOP-62 NSCLC
# [51] = tested on: CCRF-CEM leukemia
# [52] = tested on: MALME-3M melanoma
# [53] = tested on: OVCAR-5 ovarian
# [54] = tested on: SR leukemia
# [55] = tested on: K-562 leukemia
# [56] = tested on: OVCAR-4 ovarian
# [57] = tested on: NCI-H522 lung
compound,measurement,setting,value
CS(=O)(=O)CCCn1c(=O)c(Oc2ccc(F)cc2F)cc2cnc(NC3CCOCC3)nc21,GI50,[1],> 25 µM
same,TGI,[1],> 25 µM
same,GI50,[2],> 25 µM
same,TGI,[2],> 25 µM
same,GI50,[3],> 25 µM
same,TGI,[3],> 25 µM
same,GI50,[4],> 25 µM
same,TGI,[4],> 25 µM
same,GI50,[5],> 25 µM
same,TGI,[5],> 25 µM
same,GI50,[6],> 25 µM
same,TGI,[6],> 25 µM
same,GI50,[7],> 25 µM
same,TGI,[7],> 25 µM
same,GI50,[8],> 25 µM
same,TGI,[8],> 25 µM
same,GI50,[9],> 25 µM
same,TGI,[9],> 25 µM
same,GI50,[10],> 25 µM
same,TGI,[10],> 25 µM
same,GI50,[11],> 25 µM
same,TGI,[11],> 25 µM
same,GI50,[12],> 25 µM
same,TGI,[12],> 25 µM
same,GI50,[13],> 25 µM
same,TGI,[13],> 25 µM
same,GI50,[14],> 25 µM
same,TGI,[14],> 25 µM
same,GI50,[15],> 25 µM
same,TGI,[15],> 25 µM
same,GI50,[16],> 25 µM
same,TGI,[16],> 25 µM
same,GI50,[17],> 25 µM
same,TGI,[17],> 25 µM
same,GI50,[18],> 25 µM
same,TGI,[18],> 25 µM
same,GI50,[19],> 25 µM
same,TGI,[19],> 25 µM
same,GI50,[20],> 25 µM
same,TGI,[20],> 25 µM
same,GI50,[21],> 25 µM
same,TGI,[21],> 25 µM
same,GI50,[22],> 25 µM
same,TGI,[22],> 25 µM
same,GI50,[23],> 25 µM
same,TGI,[23],> 25 µM
same,GI50,[24],> 25 µM
same,TGI,[24],> 25 µM
same,GI50,[25],> 25 µM
same,TGI,[25],> 25 µM
same,GI50,[26],> 25 µM
same,TGI,[26],> 25 µM
same,GI50,[27],> 25 µM
same,TGI,[27],> 25 µM
same,GI50,[28],> 25 µM
same,TGI,[28],> 25 µM
same,GI50,[29],> 25 µM
same,TGI,[29],> 25 µM
same,GI50,[30],> 25 µM
same,TGI,[30],> 25 µM
same,GI50,[31],> 25 µM
same,TGI,[31],> 25 µM
same,GI50,[32],> 25 µM
same,TGI,[32],> 25 µM
same,GI50,[33],> 25 µM
same,TGI,[33],> 25 µM
same,GI50,[34],> 25 µM
same,TGI,[34],> 25 µM
same,GI50,[35],> 25 µM
same,TGI,[35],> 25 µM
same,GI50,[36],> 25 µM
same,TGI,[36],> 25 µM
same,GI50,[37],> 25 µM
same,TGI,[37],> 25 µM
same,GI50,[38],> 25 µM
same,TGI,[38],> 25 µM
same,GI50,[39],> 25 µM
same,TGI,[39],> 25 µM
same,GI50,[40],> 25 µM
same,TGI,[40],> 25 µM
same,GI50,[41],> 25 µM
same,TGI,[41],> 25 µM
same,GI50,[42],> 25 µM
same,TGI,[42],> 25 µM
same,GI50,[43],> 25 µM
same,TGI,[43],> 25 µM
same,GI50,[44],> 25 µM
same,TGI,[44],> 25 µM
same,GI50,[45],> 25 µM
same,TGI,[45],> 25 µM
same,GI50,[46],> 25 µM
same,TGI,[46],> 25 µM
same,GI50,[47],> 25 µM
same,TGI,[47],> 25 µM
same,GI50,[48],> 25 µM
same,TGI,[48],> 25 µM
same,GI50,[49],> 25 µM
same,TGI,[49],> 25 µM
same,GI50,[50],> 25 µM
same,TGI,[50],> 25 µM
same,GI50,[51],> 25 µM
same,TGI,[51],> 25 µM
same,GI50,[52],> 25 µM
same,TGI,[52],> 25 µM
same,GI50,[53],> 25 µM
same,TGI,[53],> 25 µM
same,GI50,[54],> 25 µM
same,TGI,[54],> 25 µM
same,GI50,[55],> 25 µM
same,TGI,[55],> 25 µM
same,GI50,[56],> 25 µM
same,TGI,[56],> 25 µM
same,GI50,[57],> 25 µM
same,TGI,[57],> 25 µM
